Measurements from article PMC6056506, “Single olfactory receptors set odor detection thresholds” (Nature Communications, 2018).

Columns and labels:
Test in all cases: in vivo wide-field GCaMP3 calcium imaging of identified glomeruli, awake mice
[1] = molecular target: T1, TAAR3 (Mus musculus, UniProt Q5QD16); settings: agonist, vapour-phase odorant concentration (flow dilution olfactometer), not aqueous, glomerular read-out
T1 construct: full-length native receptor from endogenous locus in olfactory sensory neurons; allele TAAR3-IRES-tauVenus (TAAR3-YFP); receptor itself untagged
T1 sequence (Q5QD16 1-343): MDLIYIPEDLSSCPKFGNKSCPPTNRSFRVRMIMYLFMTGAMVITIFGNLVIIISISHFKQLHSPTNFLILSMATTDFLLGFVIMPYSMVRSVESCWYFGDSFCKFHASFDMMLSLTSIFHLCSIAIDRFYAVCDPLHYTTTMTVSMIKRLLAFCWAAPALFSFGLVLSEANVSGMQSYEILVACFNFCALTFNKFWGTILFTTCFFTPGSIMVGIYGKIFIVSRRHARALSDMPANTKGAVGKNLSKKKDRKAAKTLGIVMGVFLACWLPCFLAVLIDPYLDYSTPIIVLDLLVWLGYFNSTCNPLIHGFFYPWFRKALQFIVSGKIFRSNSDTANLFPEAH

[2] = molecular target: T2, TAAR4 (Mus musculus, UniProt Q5QD15); settings: agonist; vapour-phase odorant concentration (flow dilution olfactometer), not aqueous; glomerular read-out
T2 construct: full-length native receptor from endogenous locus in olfactory sensory neurons; allele TAAR4-IRES-tauCherry (TAAR4-RFP); receptor itself untagged
T2 sequence (Q5QD15 1-347): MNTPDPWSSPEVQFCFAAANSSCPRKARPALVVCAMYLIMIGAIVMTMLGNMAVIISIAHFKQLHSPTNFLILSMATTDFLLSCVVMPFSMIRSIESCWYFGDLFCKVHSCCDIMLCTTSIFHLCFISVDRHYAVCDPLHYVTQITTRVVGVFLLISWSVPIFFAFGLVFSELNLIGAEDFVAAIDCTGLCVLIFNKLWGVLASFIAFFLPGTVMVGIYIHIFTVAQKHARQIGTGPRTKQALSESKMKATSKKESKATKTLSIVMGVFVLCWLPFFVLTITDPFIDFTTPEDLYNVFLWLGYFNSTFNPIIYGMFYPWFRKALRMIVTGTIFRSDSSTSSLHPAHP

[3] = molecular target: T3, TAAR5 (Mus musculus, UniProt Q5QD14); settings: agonist; vapour-phase odorant concentration (flow dilution olfactometer), not aqueous; glomerular read-out
T3 construct: full-length native receptor in olfactory sensory neurons; glomeruli identified by response profile and from separate TAAR5-RFP imaging experiments
T3 sequence (Q5QD14 1-337): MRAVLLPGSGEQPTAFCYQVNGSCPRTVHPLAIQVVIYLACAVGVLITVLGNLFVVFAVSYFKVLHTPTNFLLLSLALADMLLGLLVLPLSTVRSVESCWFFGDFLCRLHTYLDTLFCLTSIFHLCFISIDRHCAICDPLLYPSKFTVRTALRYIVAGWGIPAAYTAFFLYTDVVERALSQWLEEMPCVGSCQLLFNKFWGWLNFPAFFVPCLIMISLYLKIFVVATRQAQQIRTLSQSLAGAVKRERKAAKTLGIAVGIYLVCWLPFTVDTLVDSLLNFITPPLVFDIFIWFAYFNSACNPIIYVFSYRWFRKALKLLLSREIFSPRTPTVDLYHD

| SMILES | EC50 [1] | EC50 [2] | EC50 [3] | EC50 ([1]; printed CI does not contain the value) |
| --- | --- | --- | --- | --- |
| CC(C)CCN [isopentylamine] | 0.41 nM | 9.9 nM |  |  |
| CN(C)C [trimethylamine] | 790 nM | 470 nM | 31 nM |  |
| NCCc1ccccc1 [phenylethylamine] |  |  |  | 0.19 nM |
